From ChEMBL document CHEMBL3132769, “Fragment growing to retain or alter the selectivity of anchored kinase hinge-binding fragments” (Medchemcomm, 2014) come the findings set out here.

Experiment [1] addresses Protein kinase C eta type (Homo sapiens) (UniProt P24723). The settings on record: 0.1 uM.
Description: Inhibition of human truncated PKC eta expressed in baculovirus assessed as substrate phosphorylation using fluorescence-labelled peptides as substrate at 0.1 uM after 90 mins by microfluidic peptide phosphorylation assay
For experiment [2], the target named is Mitogen-activated protein kinase kinase kinase kinase 4 (Homo sapiens) (UniProt O95819). The settings on record: 0.1 uM.
Description: Inhibition of human HGK catalytic domain expressed in baculovirus assessed as substrate phosphorylation using fluorescence-labelled peptides as substrate at 0.1 uM after 90 mins by microfluidic peptide phosphorylation assay
The target of experiment [3] is Serine/threonine-protein kinase PAK 2 (Homo sapiens) (UniProt Q13177). The settings on record: 0.1 uM.
Description: Inhibition of human truncated PAK2 expressed in Escherichia coli cell assessed as substrate phosphorylation using fluorescence-labelled peptides as substrate at 0.1 uM after 90 mins by microfluidic peptide phosphorylation assay
The target in experiment [4] is T1, cGMP-dependent protein kinase 1 (Homo sapiens) (UniProt Q13976).
T1 sequence (whole entry): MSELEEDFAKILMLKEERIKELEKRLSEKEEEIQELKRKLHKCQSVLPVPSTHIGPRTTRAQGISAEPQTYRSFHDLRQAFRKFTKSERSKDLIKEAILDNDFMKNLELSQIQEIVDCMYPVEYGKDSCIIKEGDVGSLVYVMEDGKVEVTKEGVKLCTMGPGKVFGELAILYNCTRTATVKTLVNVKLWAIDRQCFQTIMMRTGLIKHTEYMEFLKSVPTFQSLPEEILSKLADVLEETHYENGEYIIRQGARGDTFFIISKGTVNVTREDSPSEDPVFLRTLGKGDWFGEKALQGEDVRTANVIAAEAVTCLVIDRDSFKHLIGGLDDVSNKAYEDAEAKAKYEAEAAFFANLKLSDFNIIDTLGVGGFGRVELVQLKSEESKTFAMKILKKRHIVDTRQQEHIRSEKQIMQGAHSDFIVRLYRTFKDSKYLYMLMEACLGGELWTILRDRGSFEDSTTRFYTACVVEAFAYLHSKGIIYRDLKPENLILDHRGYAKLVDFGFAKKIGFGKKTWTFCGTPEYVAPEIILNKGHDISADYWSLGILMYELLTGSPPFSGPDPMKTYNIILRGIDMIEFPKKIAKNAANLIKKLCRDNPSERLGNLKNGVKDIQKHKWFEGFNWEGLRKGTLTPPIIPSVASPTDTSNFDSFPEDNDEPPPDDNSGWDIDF
As to the kind of experiment: Inhibition of human full length PKG-1beta expressed in baculovirus assessed as substrate phosphorylation using fluorescence-labelled peptides as substrate at 9 uM after 90 mins by microfluidic peptide phosphorylation assay.

For the next experiment, the species on record is Homo sapiens. As to the kind of experiment: Inhibition of human P70S6K catalytic domain expressed in baculovirus assessed as substrate phosphorylation using fluorescence-labelled peptides as substrate at 70 uM after 90 mins by microfluidic peptide phosphorylation assay.
Experiment [5] concerns the target Protein kinase C beta type (Homo sapiens) (UniProt P05771). As to the kind of experiment: Inhibition of human full length PKC beta2 expressed in baculovirus assessed as substrate phosphorylation using fluorescence-labelled peptides as substrate at 70 uM after 90 mins by microfluidic peptide phosphorylation assay.
For experiment [6], the system named is Fibroblast growth factor receptor 2 (Homo sapiens), P21802 [N549H]. As to the kind of experiment: Inhibition of human FGFR2 N549H mutant catalytic domain expressed in baculovirus assessed as substrate phosphorylation using fluorescence-labelled peptides as substrate at 2 uM after 90 mins by microfluidic peptide phosphorylation assay.
For experiment [7], the target named is Calcium/calmodulin-dependent protein kinase type II subunit delta (Homo sapiens) (UniProt Q13557). As to the kind of experiment: Inhibition of human full length CAMK2D expressed in baculovirus assessed as substrate phosphorylation using fluorescence-labelled peptides as substrate at 95 uM after 90 mins by microfluidic peptide phosphorylation assay.
The target of experiment [8] is T2, Serine/threonine-protein kinase Sgk2 (Homo sapiens) (UniProt Q9HBY8).
T2 sequence (whole entry): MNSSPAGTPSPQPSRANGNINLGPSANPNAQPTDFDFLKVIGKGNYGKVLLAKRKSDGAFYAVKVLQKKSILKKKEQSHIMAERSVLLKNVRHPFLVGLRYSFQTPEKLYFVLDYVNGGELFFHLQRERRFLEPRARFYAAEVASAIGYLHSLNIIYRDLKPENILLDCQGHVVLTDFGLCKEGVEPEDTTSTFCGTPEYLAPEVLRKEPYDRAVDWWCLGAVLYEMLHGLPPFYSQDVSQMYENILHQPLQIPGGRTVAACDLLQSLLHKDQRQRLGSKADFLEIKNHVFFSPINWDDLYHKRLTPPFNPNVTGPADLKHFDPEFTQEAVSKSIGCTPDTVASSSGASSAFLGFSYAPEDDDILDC
As to the kind of experiment: Inhibition of human full length SGK2 expressed in baculovirus assessed as substrate phosphorylation using fluorescence-labelled peptides as substrate at 95 uM after 90 mins by microfluidic peptide phosphorylation assay.

Experiment [9] deals with T3, Serine/threonine-protein kinase Sgk3 (Homo sapiens) (UniProt Q96BR1).
T3 sequence (whole entry): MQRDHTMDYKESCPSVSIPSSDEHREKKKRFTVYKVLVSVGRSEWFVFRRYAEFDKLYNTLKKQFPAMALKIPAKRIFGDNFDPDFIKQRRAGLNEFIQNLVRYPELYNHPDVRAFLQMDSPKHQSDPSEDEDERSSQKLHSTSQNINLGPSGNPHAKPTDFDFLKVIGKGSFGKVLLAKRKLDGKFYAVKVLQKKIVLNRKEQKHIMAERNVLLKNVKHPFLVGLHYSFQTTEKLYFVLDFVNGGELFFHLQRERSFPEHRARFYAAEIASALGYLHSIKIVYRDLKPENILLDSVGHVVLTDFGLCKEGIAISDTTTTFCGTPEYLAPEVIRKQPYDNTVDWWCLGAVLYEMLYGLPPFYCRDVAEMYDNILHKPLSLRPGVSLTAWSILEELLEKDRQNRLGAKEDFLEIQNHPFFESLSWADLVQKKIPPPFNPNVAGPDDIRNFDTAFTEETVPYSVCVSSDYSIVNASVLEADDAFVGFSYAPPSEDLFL
As to the kind of experiment: Inhibition of human full length SGK3 expressed in baculovirus assessed as substrate phosphorylation using fluorescence-labelled peptides as substrate at […] after 90 mins by microfluidic peptide phosphorylation assay.

Mitogen-activated protein kinase kinase kinase kinase 4 (Homo sapiens), sequence (O95819 2-1239 limits assumed): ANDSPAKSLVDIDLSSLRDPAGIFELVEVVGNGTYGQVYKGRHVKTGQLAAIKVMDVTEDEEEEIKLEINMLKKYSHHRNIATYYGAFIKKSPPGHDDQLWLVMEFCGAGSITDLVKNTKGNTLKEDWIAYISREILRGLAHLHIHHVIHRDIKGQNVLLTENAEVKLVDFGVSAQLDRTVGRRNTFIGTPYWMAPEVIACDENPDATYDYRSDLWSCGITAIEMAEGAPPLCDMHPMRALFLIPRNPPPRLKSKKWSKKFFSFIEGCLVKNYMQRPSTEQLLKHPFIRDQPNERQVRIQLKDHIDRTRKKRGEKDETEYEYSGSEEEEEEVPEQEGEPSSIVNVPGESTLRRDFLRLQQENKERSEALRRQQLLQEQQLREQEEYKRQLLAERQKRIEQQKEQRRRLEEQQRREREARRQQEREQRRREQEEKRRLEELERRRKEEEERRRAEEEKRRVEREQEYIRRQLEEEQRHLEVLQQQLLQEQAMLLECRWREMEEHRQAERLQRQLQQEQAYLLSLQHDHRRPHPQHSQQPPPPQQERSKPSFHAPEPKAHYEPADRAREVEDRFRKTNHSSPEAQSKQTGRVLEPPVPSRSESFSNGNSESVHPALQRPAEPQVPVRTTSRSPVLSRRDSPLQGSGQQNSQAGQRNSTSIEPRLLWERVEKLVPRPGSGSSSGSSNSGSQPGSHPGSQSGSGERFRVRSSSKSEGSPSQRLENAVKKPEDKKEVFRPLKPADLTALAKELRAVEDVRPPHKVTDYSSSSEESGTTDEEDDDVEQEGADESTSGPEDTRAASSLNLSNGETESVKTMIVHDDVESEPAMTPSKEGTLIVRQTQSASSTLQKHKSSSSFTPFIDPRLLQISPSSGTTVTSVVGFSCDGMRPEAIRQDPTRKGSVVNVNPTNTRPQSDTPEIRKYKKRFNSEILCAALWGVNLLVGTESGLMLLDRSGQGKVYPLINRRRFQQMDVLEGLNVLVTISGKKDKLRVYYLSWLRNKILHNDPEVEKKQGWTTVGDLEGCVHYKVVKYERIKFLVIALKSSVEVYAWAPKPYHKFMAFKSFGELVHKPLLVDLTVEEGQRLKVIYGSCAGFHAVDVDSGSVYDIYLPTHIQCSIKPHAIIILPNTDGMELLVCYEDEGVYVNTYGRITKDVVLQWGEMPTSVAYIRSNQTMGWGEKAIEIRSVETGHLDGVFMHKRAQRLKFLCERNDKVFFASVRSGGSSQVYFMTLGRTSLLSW
Calcium/calmodulin-dependent protein kinase type II subunit delta (Homo sapiens), sequence (Q13557 whole entry): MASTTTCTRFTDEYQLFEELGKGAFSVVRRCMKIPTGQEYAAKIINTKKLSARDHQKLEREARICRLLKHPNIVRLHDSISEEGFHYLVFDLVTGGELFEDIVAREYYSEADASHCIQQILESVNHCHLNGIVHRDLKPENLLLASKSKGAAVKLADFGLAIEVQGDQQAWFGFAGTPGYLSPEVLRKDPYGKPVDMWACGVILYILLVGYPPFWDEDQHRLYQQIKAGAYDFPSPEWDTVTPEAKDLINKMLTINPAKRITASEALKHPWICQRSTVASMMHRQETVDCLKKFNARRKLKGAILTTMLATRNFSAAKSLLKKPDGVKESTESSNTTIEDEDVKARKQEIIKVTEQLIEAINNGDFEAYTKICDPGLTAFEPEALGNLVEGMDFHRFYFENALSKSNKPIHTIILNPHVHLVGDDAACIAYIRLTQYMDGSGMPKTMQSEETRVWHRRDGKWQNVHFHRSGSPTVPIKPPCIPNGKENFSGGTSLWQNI
Fibroblast growth factor receptor 2 (Homo sapiens), P21802 [N549H], sequence (P21802 whole entry N549H, the tested form may be a part): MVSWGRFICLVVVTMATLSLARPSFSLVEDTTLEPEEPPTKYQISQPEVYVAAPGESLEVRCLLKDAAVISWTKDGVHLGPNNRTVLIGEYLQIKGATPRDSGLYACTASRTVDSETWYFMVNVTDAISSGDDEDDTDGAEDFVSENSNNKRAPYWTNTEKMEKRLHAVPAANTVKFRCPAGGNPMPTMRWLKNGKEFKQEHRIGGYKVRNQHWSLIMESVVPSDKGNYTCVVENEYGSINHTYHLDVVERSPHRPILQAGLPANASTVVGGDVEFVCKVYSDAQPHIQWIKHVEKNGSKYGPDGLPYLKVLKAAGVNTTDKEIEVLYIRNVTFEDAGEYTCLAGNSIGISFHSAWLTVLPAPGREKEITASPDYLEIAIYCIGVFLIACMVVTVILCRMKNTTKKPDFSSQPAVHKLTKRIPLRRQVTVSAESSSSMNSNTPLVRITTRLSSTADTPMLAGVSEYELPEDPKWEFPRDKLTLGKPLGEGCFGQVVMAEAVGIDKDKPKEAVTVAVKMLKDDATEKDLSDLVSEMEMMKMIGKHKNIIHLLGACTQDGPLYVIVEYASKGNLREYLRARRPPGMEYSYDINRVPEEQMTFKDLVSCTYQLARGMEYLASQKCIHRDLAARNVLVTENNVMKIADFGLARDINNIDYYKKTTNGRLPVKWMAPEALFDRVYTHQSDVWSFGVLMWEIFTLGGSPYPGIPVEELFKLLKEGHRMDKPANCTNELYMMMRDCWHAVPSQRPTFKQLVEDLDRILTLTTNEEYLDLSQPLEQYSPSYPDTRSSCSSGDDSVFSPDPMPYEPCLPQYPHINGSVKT
Protein kinase C beta type (Homo sapiens), sequence (P05771 2-671 limits assumed): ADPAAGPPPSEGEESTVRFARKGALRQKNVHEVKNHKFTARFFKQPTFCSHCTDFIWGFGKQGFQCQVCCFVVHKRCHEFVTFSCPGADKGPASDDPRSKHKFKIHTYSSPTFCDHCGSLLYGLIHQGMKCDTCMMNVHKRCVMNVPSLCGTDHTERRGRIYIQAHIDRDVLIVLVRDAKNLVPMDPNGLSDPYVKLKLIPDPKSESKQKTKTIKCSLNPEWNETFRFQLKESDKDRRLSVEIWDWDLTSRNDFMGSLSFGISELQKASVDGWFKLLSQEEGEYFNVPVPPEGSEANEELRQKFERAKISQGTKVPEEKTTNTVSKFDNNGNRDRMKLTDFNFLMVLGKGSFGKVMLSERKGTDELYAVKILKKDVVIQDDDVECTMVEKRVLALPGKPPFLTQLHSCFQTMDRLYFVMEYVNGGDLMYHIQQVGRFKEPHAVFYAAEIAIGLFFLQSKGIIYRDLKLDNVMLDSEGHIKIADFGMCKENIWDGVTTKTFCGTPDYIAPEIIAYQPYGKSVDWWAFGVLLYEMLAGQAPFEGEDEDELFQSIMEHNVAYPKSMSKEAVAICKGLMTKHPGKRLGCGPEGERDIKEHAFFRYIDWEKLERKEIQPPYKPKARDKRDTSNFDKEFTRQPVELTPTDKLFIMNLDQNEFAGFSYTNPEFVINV
Serine/threonine-protein kinase PAK 2 (Homo sapiens), sequence (Q13177 whole entry): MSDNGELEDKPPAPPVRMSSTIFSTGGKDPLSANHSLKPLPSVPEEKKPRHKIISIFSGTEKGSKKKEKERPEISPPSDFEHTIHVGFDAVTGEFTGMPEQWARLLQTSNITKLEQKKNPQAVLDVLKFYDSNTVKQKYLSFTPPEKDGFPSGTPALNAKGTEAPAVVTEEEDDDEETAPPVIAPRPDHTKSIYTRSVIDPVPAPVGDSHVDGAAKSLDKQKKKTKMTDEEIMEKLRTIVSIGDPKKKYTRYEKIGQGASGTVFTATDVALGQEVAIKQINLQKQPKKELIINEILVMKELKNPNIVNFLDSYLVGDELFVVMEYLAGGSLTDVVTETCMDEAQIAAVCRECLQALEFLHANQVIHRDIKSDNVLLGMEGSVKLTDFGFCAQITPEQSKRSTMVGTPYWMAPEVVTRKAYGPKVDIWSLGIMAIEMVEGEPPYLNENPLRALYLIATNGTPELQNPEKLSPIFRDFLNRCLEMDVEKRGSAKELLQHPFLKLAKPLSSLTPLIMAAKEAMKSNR
Protein kinase C eta type (Homo sapiens), sequence (P24723 whole entry): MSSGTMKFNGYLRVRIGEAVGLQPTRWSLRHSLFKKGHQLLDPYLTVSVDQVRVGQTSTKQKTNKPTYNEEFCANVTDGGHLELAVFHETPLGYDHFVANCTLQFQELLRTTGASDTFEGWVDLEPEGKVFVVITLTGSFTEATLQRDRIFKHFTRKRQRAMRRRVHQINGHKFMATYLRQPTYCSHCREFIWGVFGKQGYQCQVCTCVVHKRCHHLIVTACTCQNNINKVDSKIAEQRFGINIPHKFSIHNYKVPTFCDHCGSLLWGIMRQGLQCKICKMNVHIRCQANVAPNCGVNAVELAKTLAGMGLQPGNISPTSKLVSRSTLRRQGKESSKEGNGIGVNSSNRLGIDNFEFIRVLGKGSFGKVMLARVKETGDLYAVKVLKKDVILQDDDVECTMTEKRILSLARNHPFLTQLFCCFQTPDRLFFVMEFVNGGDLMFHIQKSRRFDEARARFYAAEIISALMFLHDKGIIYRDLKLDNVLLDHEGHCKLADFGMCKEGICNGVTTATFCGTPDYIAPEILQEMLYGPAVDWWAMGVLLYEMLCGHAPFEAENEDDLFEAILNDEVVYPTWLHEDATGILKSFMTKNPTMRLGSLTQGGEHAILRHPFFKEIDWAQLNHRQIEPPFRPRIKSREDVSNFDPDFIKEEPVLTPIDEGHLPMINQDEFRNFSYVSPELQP

Regarding `C[C@H](CN(C)C)Oc1nc(Nc2cc3cccc(Cl)c3cn2)cnc1C#N`, the inhibition in experiment [1], in experiment [2] and in experiment [3] was 0% throughout.
As to `NCC1CN(c2ncnc3[nH]c4cnccc4c23)CCO1` (stereo not given), the inhibition in experiment [4] came to 12.5%.
Regarding `CNCc1ccc(-c2ncnc3[nH]cnc23)cc1`, the results for the inhibition (in the experiment filed under Homo sapiens; in experiment [5]) were 29.5% and 0%, respectively.
With `NC1CCN(c2ncnc3[nH]ccc23)CC1`, the inhibition in experiment [6] is 1%.
As to `NCCc1ccc(-c2ncnc3[nH]cnc23)cc1`, the inhibition in experiment [7] amounted to 45.5%; in [8], 50.5%.
For the compound `COC(=O)c1cnc(Nc2cnc(C#N)cn2)cc1NCC1CCNCC1`, in experiment [9], the inhibition was found to be 5%.
